{"source": "patent US20130053350A1", "about": "“PPAR-SPARING THIAZOLIDINEDIONES AND COMBINATIONS FOR THE TREATMENT OF NEURODEGENERATIVE DISEASES” (Metabolic Solutions Development Company, LLC, priority 2009, published 2013)", "key": {"[1]": {"system": "PPARγ", "details": "dosed to full effect for insulin sensitizing actions in vivo; cited from earlier work"}, "[2]": {"system": "astrocyte marker GFAP", "test": "GFAP astrocyte marker staining of sections from treated mice", "assay_type": "in vivo", "details": "sections from control and treated mice", "protocol": "(§1) 5XFAD mice harbor 5 familial mutations (3 in the amyloid precursor protein; 2 in presenilin 1) and develop robust plaque pathology as early as 6 weeks. These mice were treated beginning at 2 months of age for a period of 4 weeks with control chow or chow containing Compound X to deliver 390 mg/kg for 4 weeks."}, "[3]": {"system": "PGC-1α", "test": "Synergy with norepinephrine on expression of PGC-1α mRNA in precursor BAT cells (quantitative PCR)", "assay_type": "cell-based", "details": "3 μM compound for seven days, then 1 μM norepinephrine for 2 hours, vs control without compound", "protocol": "Another example of the ability of augmented signaling between cyclic nucleotides and compounds of Formula I is shown by the effect on expression of PGC-1α, a known regulator of mitochondrial biogenesis. Increased numbers of mitochondria are predictive of utility for the reduction of body weight.\nPrecursor BAT cells were isolated as described above and treated with or without 3 μM compounds: 1.] Compound X: 5-(4-(2-(5-ethylpyridin-2-yl)-2-oxoethoxy)benzyl)-1,3-thiazolidine-2,4-dione; 2.] Compound Y: 5-(4-(2R)-2-(5-ethylpyridin-2-yl)-2-hydroxyethoxyy)benzyl)-1,3-thiazolidine-2,4-dione; or 3.] Compound Z: 5-(4-(2-(3-methoxyphenyl)-2-oxoethoxy)benzyl)-1,3-thiazolidine-2,4-dione for seven days followed by treatment with 1 μM norepinephrine for 2 hours. Total RNA was isolated from the cells and the RNA message (mRNA) for PGC-1α was measured by quantitative polymerase chain reactions."}, "[4]": {"system": "5XFAD mice", "test": "Thioflavin S stained plaques in the hippocampus of 5XFAD mice", "assay_type": "in vivo", "protocol": "as §1\nReferring to FIG. 7, thioflavin S stained plaques were counted in the hippocampus of the 5XFAD mice. […] Note that the plaques having less than 100 micron size were excluded from the graph, and those amounted to about 70% of all the plaques in both Control and Compound X treated groups."}, "[5]": {"details": "chow delivering 390 mg/kg for 4 weeks, hippocampus, vs control group"}}}
{"molecule": "CN(CCOc1ccc(CC2SC(=O)NC2=O)cc1)c1ccccn1", "note": "(centres unmarked) [rosiglitazone]", "values": [{"measurement": "a P2 expression in the liver", "setting": "[1]", "value": "increase"}]}
{"molecule": "CCc1ccc(C(=O)COc2ccc(CC3SC(=O)NC3=O)cc2)nc1", "note": "(centres unmarked) [Mitoglitazone]", "values": [{"measurement": "average number of GFAP positively stained cells per section, P value control vs treated", "setting": "[2]", "value": 0.012}]}
{"molecule": "CCc1ccc(C(=O)COc2ccc(CC3SC(=O)NC3=O)cc2)nc1", "note": "(centres unmarked) [Compound X, 5-(4-(2-(5-ethylpyridin-2-yl)-2-oxoethoxy)benzyl)-1,3-thiazolidine-2,4-dione]", "values": [{"measurement": "PGC-1α message (mRNA) in the presence of norepinephrine", "setting": "[3]", "value": "increase"}, {"measurement": "number of plaques", "setting": "[4]; [5]", "value": "less than the control group"}, {"measurement": "size of plaques", "setting": "[4]; [5]", "value": "less than the control group"}, {"measurement": "plaques having less than 100 micron size, share of all the plaques", "setting": "[4]; same in Control and treated groups, excluded from the graph", "value": "about 70%"}]}
{"molecule": "COc1cccc(C(=O)COc2ccc(CC3SC(=O)NC3=O)cc2)c1", "note": "(centres unmarked) [Compound Z, 5-(4-(2-(3-methoxyphenyl)-2-oxoethoxy)benzyl)-1,3-thiazolidine-2,4-dione]", "values": [{"measurement": "PGC-1α message (mRNA) in the presence of norepinephrine", "setting": "[3]", "value": "increase"}]}
{"molecule": "CCc1ccc([C@@H](O)COc2ccc(CC3SC(=O)NC3=O)cc2)nc1", "note": "(some centres unmarked) [Compound Y]", "values": [{"measurement": "PGC-1α message (mRNA) in the presence of norepinephrine", "setting": "[3]", "value": "increase"}]}
